The text below walks through data of patent US11267811B2, “Small molecule inhibitors of galectin-3” (BRISTOL-MYERS SQUIBB COMPANY, priority 2017, dated 2022).

Read-outs that look alike come from different tables or passages of the source.

The target in this assay is His-tagged recombinant human Gal-3 (hGal-3) (Homo sapiens (Human), UniProt P17931). Briefly: Gal-3 HTRF assay (His-tagged hGal-3 binding to B-ASF).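 Also: compounds preincubated 30 min with hGal-3, then 1 h with B-ASF, detection via terbium anti-His antibody and streptavidin d2. Control with B-ASF counts as full signal, omitting B-ASF as background.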
[1] abbreviates: HTRF, hGal-3 15 nM, B-ASF 15 nM, read-out: hGal-3 IC50.

His-tagged recombinant human Gal-3 (hGal-3), sequence (P17931 whole entry): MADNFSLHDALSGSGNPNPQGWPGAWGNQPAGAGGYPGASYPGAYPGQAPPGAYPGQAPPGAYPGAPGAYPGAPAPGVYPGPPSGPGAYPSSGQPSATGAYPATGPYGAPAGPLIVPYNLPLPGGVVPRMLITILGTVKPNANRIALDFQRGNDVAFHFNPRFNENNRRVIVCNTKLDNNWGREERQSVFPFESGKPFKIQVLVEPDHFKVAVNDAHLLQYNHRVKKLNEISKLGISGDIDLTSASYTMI

As a reminder, the IC50 is the concentration at which inhibition is half-maximal. Regarding `Cc1nc([C@@H]2O[C@H](CO)[C@H](O)[C@H](n3cc(-c4ccc(Cl)c(Cl)c4)nn3)[C@H]2O)n(-c2cc(Cl)ccc2C(F)(F)F)n1` [Example A3, (2S,3R,4R,5R,6R)-2-(1-(5-Chloro-2-(trifluoromethyl)phenyl)-3-methyl-1H-1,2,4-triazol-5-yl)-4-(4-(3,4-dichlorophenyl)-1H-1,2,3-triazol-1-yl)-6-(hydroxymethyl)tetrahydro-2H-pyran-3,5-diol], the IC50 under setting [1] was found to be 33 nM.
In the case of `Cc1nc([C@@H]2O[C@H](CO)[C@H](O)[C@H](n3cc(-c4cc(F)c(F)c(F)c4)nn3)[C@H]2O)n(-c2ccc3nc(C(F)(F)F)sc3c2)n1` [Example A8], where the note is “read-out: hGal IC50”, the IC50 is 505 nM.
Take `OC[C@H]1O[C@@H](c2nncn2-c2ccc(F)cc2)[C@H](O)[C@@H](n2cc(-c3cc(F)c(F)c(F)c3)nn2)[C@H]1O` [Example 85]: the IC50 under setting [1] is 440 nM.
Regarding `OC[C@H]1O[C@@H](c2nncn2-c2ccc(F)c(Cl)c2)[C@H](O)[C@@H](n2cc(-c3cc(F)c(F)c(F)c3)nn2)[C@H]1O` [Example 156], the IC50 under setting [1] was determined as 50 nM.
As for `OC[C@H]1O[C@@H](c2ncnn2-c2cc(Cl)ccc2F)C[C@@H](n2cc(-c3cc(F)c(F)c(F)c3)nn2)[C@H]1O` [Example 179], the IC50 under setting [1] worked out at 250 nM.
With `Cc1nc([C@@H]2O[C@H](CO)[C@H](O)[C@H](n3cc(-c4ccc(Br)c(F)c4)nn3)[C@H]2O)n(-c2ccc3ncsc3c2)n1` [Example A22], for the setting “read-out: hGal IC50”, the IC50 came to 22 nM.
As to `OC[C@H]1O[C@@H](c2nncn2-c2ccccc2OC(F)(F)F)[C@H](O)[C@@H](n2cc(-c3cc(F)c(F)c(F)c3)nn2)[C@H]1O` [Example 102], the IC50 under setting [1] amounted to 300 nM.
Regarding `Cn1ncc(-c2cccc(Cl)c2)c1[C@@H]1O[C@H](CO)[C@H](O)[C@H](n2cc(-c3cc(F)c(F)c(F)c3)nn2)[C@H]1O` [Example 287, (2S,3R,4R,5R,6R)-2-(4-(3-chlorophenyl)-1-methyl-1H-pyrazol-5-yl)-6-(hydroxymethyl)-4-(4-(3,4,5-trifluorophenyl)-1H-1,2,3-triazol-1-yl)tetrahydro-2H-pyran-3,5-diol], the IC50 under setting [1] stood at 10000 nM.
As for `OC[C@H]1O[C@@H](n2nncc2-c2ccc3[nH]ncc3c2)[C@H](O)[C@@H](n2cc(-c3cc(F)c(F)c(F)c3)nn2)[C@H]1O` [Example 5], under setting [1], the IC50 came to 640 nM.
Turning to `Cc1nc([C@@H]2O[C@H](CO)[C@H](O)[C@H](n3cc(-c4cc(F)c(Cl)c(Cl)c4)nn3)[C@H]2O)n(-c2ccc3nc(C)sc3c2)n1` [Example A25], under “read-out: hGal IC50”, the IC50 is 45 nM.
As for `CSc1nnc([C@@H]2O[C@H](CO)[C@H](O)[C@H](n3cc(-c4cc(F)c(F)c(F)c4)nn3)[C@H]2O)n1-c1ccc(Cl)c(Cl)c1` [Example 278, (2S,3R,4R,5R,6R)-2-(4-(3,4-dichlorophenyl)-5-(methylthio)-4H-1,2,4-triazol-3-yl)-6-(hydroxymethyl)-4-(4-(3,4,5-trifluorophenyl)-1H-1,2,3-triazol-1-yl)tetrahydro-2H-pyran-3,5-diol], the IC50 under setting [1] stood at 120 nM.
Same read-out and setting: the same measure for `NS(=O)(=O)c1ccc(-n2cnnc2[C@@H]2O[C@H](CO)[C@H](O)[C@H](n3cc(-c4cc(F)c(F)c(F)c4)nn3)[C@H]2O)cc1` [Example 116]: 670 nM; for `CS(=O)(=O)c1cccc(-n2cnnc2[C@@H]2O[C@H](CO)[C@H](O)[C@H](n3cc(-c4cc(F)c(F)c(F)c4)nn3)[C@H]2O)c1` [Example 128]: 310 nM; for `O=C(NCc1ccncc1)c1nnc([C@@H]2O[C@H](CO)[C@H](O)[C@H](n3cc(-c4cccc(F)c4)nn3)[C@H]2O)o1` [Example 296, 5-((2R,3R,4S,5R,6R)-4-(4-(3-fluorophenyl)-1H-1,2,3-triazol-1-yl)-3,5-dihydroxy-6-(hydroxymethyl)tetrahydro-2H-pyran-2-yl)-N-(pyridin-4-ylmethyl)-1,3,4-oxadiazole-2-carboxamide]: 1490 nM.
For the compound `CC(=O)Nc1cc(-c2cn([C@H]3[C@@H](O)[C@@H](CO)O[C@@H](c4ncnn4-c4ccc5nc(C)sc5c4)[C@@H]3O)nn2)cc(F)c1F` [Example 219], for the setting “read-out: hGal3 IC50”, the IC50 came to 70 nM.
As for `OC[C@H]1O[C@@H](c2ncnn2-c2cc(Cl)ccc2Cl)[C@H](O)[C@@H](n2cc(-c3cc(F)c(F)c(F)c3)nn2)[C@H]1O` [Example 47], under setting [1], the IC50 came to 80 nM.
In the case of `OC[C@H]1O[C@@H](n2nncc2-c2cccc(Cl)c2)[C@H](F)[C@@H](n2cc(-c3cc(F)c(F)c(F)c3)nn2)[C@H]1O` [Example 18, (2R,3R,4S,5R,6R)-6-(5-(3-chlorophenyl)-1H-1,2,3-triazol-1-yl)-5-fluoro-2-(hydroxymethyl)-4-(4-(3,4,5-trifluorophenyl)-1H-1,2,3-triazol-1-yl)tetrahydro-2H-pyran-3-ol], the 50% inhibitory concentration (IC50) under setting [1] is 1040 nM.
For the compound `OC[C@H]1O[C@@H](c2nncn2-c2ccc(Cl)cc2Cl)[C@H](O)[C@@H](n2cc(-c3cc(F)c(F)c(F)c3)nn2)[C@H]1O` [Example 83], the IC50 under setting [1] was 900 nM.
For `Cc1nc([C@@H]2O[C@H](CO)[C@H](O)[C@H](n3cc(-c4cc(F)c(F)c(F)c4)nn3)[C@H]2O)n(-c2cc(C(F)(F)F)ccc2Cl)n1` [Example 70], under setting [1], the IC50 is 50 nM.
On to `OC[C@H]1O[C@@H](c2nncn2-c2cccc(OCc3ccccc3)c2)[C@H](O)[C@@H](n2cc(-c3cc(F)c(F)c(F)c3)nn2)[C@H]1O` [Example 108], for which the IC50 under setting [1] is 370 nM.
Turning to `Cc1nc2ccc(-n3ncnc3[C@@H]3O[C@H](CO)[C@H](O)[C@H](n4cc(-c5cc(F)c(Cl)c(F)c5)nn4)[C@H]3O)cc2s1` [Example 210], the 50% inhibitory concentration (IC50) (read-out: hGal3 IC50) was found to be 40 nM.
Consider `Cc1nc2ccc(-n3ncnc3[C@@H]3O[C@H](CO)[C@H](O)[C@H](n4cc(-c5cc(F)c(N6CCC(O)CC6)c(F)c5)nn4)[C@H]3O)cc2s1` [Example 241, (2R,3R,4R,5R,6S)-4-(4-(3,5-difluoro-4-(4-hydroxypiperidin-1-yl)phenyl)-1H-1,2,3-triazol-1-yl)-2-(hydroxymethyl)-6-(1-(2-methylbenzo[d]thiazol-6-yl)-1H-1,2,4-triazol-5-yl)tetrahydro-2H-pyran-3,5-diol], for which, under setting [1], the IC50 turned out to be 130 nM.
On to `CCO[C@@H]1[C@@H](n2cc(-c3cc(F)c(F)c(F)c3)nn2)[C@@H](O)[C@@H](CO)O[C@H]1n1nncc1-c1cccc(Cl)c1` [Example 12, (2R,3R,4S,5R,6R)-6-(5-(3-chlorophenyl)-1H-1,2,3-triazol-1-yl)-5-ethoxy-2-(hydroxymethyl)-4-(4-(3,4,5-trifluorophenyl)-1H-1,2,3-triazol-1-yl)tetrahydro-2H-pyran-3-ol], for which the IC50 under setting [1] was found to be 970 nM.
As to `Cc1nc([C@@H]2O[C@H](CO)[C@H](O)[C@H](n3cc(-c4cc(F)c5ncccc5c4)nn3)[C@H]2O)n(-c2cc(Cl)ccc2C(F)(F)F)n1` [Example A68], the IC50 (read-out: hGal IC50) came out at 154 nM.
As for `CN(C)S(=O)(=O)c1ccc(-n2cnnc2[C@@H]2O[C@H](CO)[C@H](O)[C@H](n3cc(-c4cc(F)c(F)c(F)c4)nn3)[C@H]2O)cc1` [Example 115], under setting [1], the IC50 worked out at 11100 nM.
Turning to `OC[C@H]1O[C@@H](c2ncnn2-c2c(F)cccc2F)[C@H](O)[C@@H](n2cc(-c3cc(F)c(F)c(F)c3)nn2)[C@H]1O` [Example 29], under setting [1], the IC50 stood at 1560 nM.
Regarding `Cc1nc2ccc(-n3ncnc3[C@@H]3O[C@H](CO)[C@H](O)[C@H](n4cc(-c5ccc(Cl)c(Cl)c5)nn4)[C@H]3O)cc2s1` [Example 211], the IC50 (read-out: hGal3 IC50) worked out at 60 nM.
In the case of `CO[C@@H]1[C@@H](n2cc(-c3ccc(Br)c(F)c3)nn2)[C@@H](O)[C@@H](CO)O[C@H]1c1nc(C)nn1-c1ccc2ncsc2c1` [Example A75], the IC50 (read-out: hGal IC50) was determined as 340 nM.
As for `Cc1nnc([C@@H]2O[C@H](CO)[C@H](O)[C@H](n3cc(-c4cc(F)c(Br)c(F)c4)nn3)[C@H]2O)n1-c1cc(Cl)cc2cccnc12` [Example 318], under “read-out: hGal3 IC50”, the IC50 turned out to be 11 nM.
On to `Cc1nc2cc(C)c(-n3ncnc3[C@@H]3O[C@H](CO)[C@H](O)[C@H](n4cc(-c5cc(F)c(F)c(F)c5)nn4)[C@H]3O)cc2s1` [Example 49], for which the IC50 under setting [1] came out at 50 nM.
Still for that read-out and setting: the result for `Cc1nc2ccc(-n3ncnc3[C@@H]3O[C@H](CO)[C@H](O)[C@H](n4cc(C(=O)NC5CC5)nn4)[C@H]3O)cc2s1` [Example 193, N-cyclopropyl-1-((2R,3R,4R,5R,6S)-3,5-dihydroxy-2-(hydroxymethyl)-6-(1-(2-methylbenzo[d]thiazol-6-yl)-1H-1,2,4-triazol-5-yl)tetrahydro-2H-pyran-4-yl)-1H-1,2,3-triazole-4-carboxamide] reads 180 nM.
For the compound `Cc1nc([C@@H]2O[C@H](CO)[C@H](O)[C@H](n3cc(-c4ccc(Cl)c(F)c4)nn3)[C@H]2O)n(-c2ccc3ncsc3c2)n1` [Example 256], the IC50 (read-out: hGal3 IC50) came out at 80 nM.
As for `O=C(NCCN1CCOCC1)c1nnc([C@@H]2O[C@H](CO)[C@H](O)[C@H](n3cc(-c4cccc(F)c4)nn3)[C@H]2O)o1` [Example 299, 5-((2R,3R,4S,5R,6R)-4-(4-(3-fluorophenyl)-1H-1,2,3-triazol-1-yl)-3,5-dihydroxy-6-(hydroxymethyl)tetrahydro-2H-pyran-2-yl)-N-(2-morpholinoethyl)-1,3,4-oxadiazole-2-carboxamide], the IC50 under setting [1] was 10600 nM.
Same read-out and setting: the result for `O=[N+]([O-])c1cccc(-n2ncnc2[C@@H]2O[C@H](CO)[C@H](O)[C@H](n3cc(-c4cc(F)c(F)c(F)c4)nn3)[C@H]2O)c1` [Example 35] reads 700 nM.
`Cc1nc([C@@H]2O[C@H](CO)[C@H](O)[C@H](n3cc(-c4ccc(Br)c(F)c4)nn3)[C@H]2O)n(-c2cc3sc(C)nc3cc2C(F)(F)F)n1` [Example A31]: where the note is “read-out: hGal IC50”, the IC50 was determined as 22 nM.
On to `Cc1nc([C@@H]2O[C@H](CO)[C@H](O)[C@H](n3cc(-c4ccc(F)c(Cl)c4)nn3)[C@H]2O)n(-c2cc(Cl)ccc2C(F)(F)F)n1` [Example A50], for which the IC50 (read-out: hGal IC50) is 52 nM.
Turning to `Cc1nc2ccc(-c3cnnn3[C@@H]3O[C@H](CO)[C@H](O)[C@H](n4cc(-c5cc(F)c(F)c(F)c5)nn4)[C@H]3O)cc2s1` [Example 8], the IC50 under setting [1] was 158 nM.
As to `CCOC(=O)c1nnc([C@@H]2O[C@H](CO)[C@H](O)[C@H](n3cc(-c4cc(F)c(F)c(F)c4)nn3)[C@H]2O)n1-c1ccc2nc(C)sc2c1` [Example 275], the IC50 (read-out: hGal3 IC50) stood at 60 nM.
Turning to `COc1ccc(Cl)cc1-n1ncnc1[C@H]1C[C@@H](n2cc(-c3cc(F)c(F)c(F)c3)nn2)[C@@H](O)[C@@H](CO)O1` [Example 180], the IC50 under setting [1] is 210 nM.
